Source: patent US8574563B2 (Bristol-Myers Squibb Company, priority 2006, dated 2013)

Test system: HCV 1b-377-neo replicon cells
Experiment: HCV replicon assay, HCV 1b-377-neo replicon cells (1b FRET)
Assay type: cell-based, Hepatitis C virus genotype 1b
Conditions: HCV 1b-377-neo replicon cells, HCV 1b genotype; for EC50: Hepatitis C virus, read-out: EC50 range against HCV 1b (Table 2, Range)
Protocol: An HCV Replion assay was utilized in the present disclosure, and was prepared, conducted and validated as described in commonly owned PCT/US2006/022197 and in O'Boyle et. al. Antimicrob Agents Chemother. 2005 April; 49(4):1346-53.
HCV 1b-377-neo replicon cells were used to test the currently described compound series as well as cells resistant to compound A due to a Y2065H mutation in NS5A (described in application PCT/US2006/022197). The compounds tested were determined to have more than 10-fold less inhibitory activity on cells resistant to compound A than wild-type cells indicating a related mechanism of action between the two compound series. Thus, the compounds of the present disclosure can be effective to inhibit the function of the HCV NS5A protein and are understood to be as effective in combinations as previously described in application PCT/US2006/022197 and commonly owned WO/04014852. Further, the compounds of the present disclosure can be effective against the HCV 1b genotype. It should also be understood that the compounds of the present disclosure can inhibit multiple genotypes of HCV. […] In one embodiment compounds of the present disclosure are active against the 1a, 1b, 2a, 2b, 3a, 4a, and 5a genotypes.

SMILES | EC50 | EC50 range against HCV 1b (Table 2, Range)
CC(C)[C@@H](C(=O)N1CCC[C@H]1c1ncc(-c2ccc(-c3ccc(-c4cnc([C@@H]5CCCN5C(=O)[C@H](C(C)C)N5CCCNC5=O)[nH]4)cc3)cc2)[nH]1)N1CCCNC1=O [OL-5, 1,1′-(4,4′-biphenyldiylbis(1H-imidazole-4,2-diyl(2S)-2,1-pyrrolidinediyl((2S)-3-methyl-1-oxo-1,2-butanediyl)))ditetrahydro-2(1H)-pyrimidinone] | 0.001 to 0.999 nM | –
COC(=O)N[C@H](C(=O)N1[C@@H]2C[C@@H]2C[C@H]1c1ncc(-c2ccc(-c3ccc(-c4cnc([C@@H]5C[C@H]6C[C@H]6N5C(=O)CCCC[C@@H]5SC[C@@H]6NC(=O)N[C@@H]65)[nH]4)cc3)cc2)[nH]1)C(C)C [Example M139] | 0.001 to 0.999 nM | –
COC(=O)N[C@@H](C(=O)N1CCC[C@H]1c1ncc(-c2ccc(-c3ccc(-c4cnc([C@@H]5CCCN5C(=O)C5(c6ccccc6)CC5)[nH]4)cc3)cc2)[nH]1)c1ccccc1 [Example 84-77, methyl ((1R)-2-oxo-1-phenyl-2-((2S)-2-(5-(4′-(2-((2S)-1-((1-phenylcyclopropyl)carbonyl)-2-pyrrolidinyl)-1H-imidazol-5-yl)-4-biphenylyl)-1H-imidazol-2-yl)-1-pyrrolidinyl)ethyl)carbamate] | 0.001 to 0.999 nM | –
CCCN(CCC)[C@@H](C)C(=O)N1CCC[C@H]1c1ncc(-c2ccc(-c3ccc(-c4cnc([C@@H]5CCCN5C(=O)[C@H](C)NC(=O)OC)[nH]4)cc3)cc2)[nH]1 [Example M103, methyl ((1S)-2-((2S)-2-(5-(4′-(2-((2S)-1-(N,N-dipropyl-L-alanyl)-2-pyrrolidinyl)-1H-imidazol-5-yl)-4-biphenylyl)-1H-imidazol-2-yl)-1-pyrrolidinyl)-1-methyl-2-oxoethyl)carbamate] | 100 to 999 nM | –
CC(=O)OC(C(=O)N1CCC[C@H]1c1ncc(-c2ccc(-c3ccc(-c4cnc([C@@H]5CCCN5C(=O)[C@@H](c5ccccc5F)N(C)C)[nH]4)cc3)cc2)[nH]1)c1ccccc1 (stereo in doubt) [Example 107-33, (1R)-2-((2S)-2-(5-(4′-(2-((2S)-1-((2R)-2-(dimethylamino)-2-(2-fluorophenyl)acetyl)-2-pyrrolidinyl)-1H-imidazol-5-yl)-4-biphenylyl)-1H-imidazol-2-yl)-1-pyrrolidinyl)-2-oxo-1-phenylethyl acetate] | 0.001 to 0.999 nM | –
CN(C)[C@@H](C(=O)N1CCC[C@H]1c1ncc(-c2ccc(-c3ccc(-c4cnc([C@@H]5CCCN5C(=O)Cc5cccc(F)c5)[nH]4)cc3)cc2)[nH]1)c1ccccc1 [Example 94-52, (1R)-2-((2S)-2-(5-(4′-(2-((2S)-1-((3-fluorophenyl)acetyl)-2-pyrrolidinyl)-1H-imidazol-5-yl)-4-biphenylyl)-1H-imidazol-2-yl)-1-pyrrolidinyl)-N,N-dimethyl-2-oxo-1-phenylethanamine] | 0.001 to 0.999 nM | –
CCOC(=O)N[C@H](C(=O)N1CCC[C@H]1c1nc(-c2ccc(-c3ccc(-c4c[nH]c([C@@H]5CCCN5C(=O)[C@@H](NC(=O)OCC)C(C)C)n4)cc3)cc2)c[nH]1)C(C)C [Example F25, ethyl ((1S)-1-(((2S)-2-(4-(4′-(2-((2S)-1-((2S)-2-((ethoxycarbonyl)amino)-3-methylbutanoyl)-2-pyrrolidinyl)-1H-imidazol-4-yl)-4-biphenylyl)-1H-imidazol-2-yl)-1-pyrrolidinyl)carbonyl)-2-methylpropyl)carbamate] | 0.001 to 0.999 nM | –
COC(=O)N[C@@H](CC(=O)N1CCN(C)CC1)C(=O)N1CCC[C@H]1c1ncc(-c2ccc(-c3ccc(-c4cnc([C@@H]5CCCN5C(=O)[C@@H](NC(=O)OC)C(C)C)[nH]4)cc3)cc2)[nH]1 [Example M112, methyl ((1S)-1-(((2S)-2-(5-(4′-(2-((2S)-1-((2S)-2-((methoxycarbonyl)amino)-4-(4-methyl-1-piperazinyl)-4-oxobutanoyl)-2-pyrrolidinyl)-1H-imidazol-5-yl)-4-biphenylyl)-1H-imidazol-2-yl)-1-pyrrolidinyl)carbonyl)-2-methylpropyl)carbamate] | 1 to 99 nM | –
CCN(CC)[C@@H](C(=O)N1CCC[C@H]1c1ncc(-c2ccc(-c3ccc(-c4cnc([C@@H]5CCCN5C(=O)[C@@H](C(C)C)N(CC)CC)[nH]4)cc3)cc2)[nH]1)C(C)C [Example M10, (2R,2′R)-1,1′-(4,4′-biphenyldiylbis(1H-imidazole-5,2-diyl(2S)-2,1-pyrrolidinediyl))bis(N,N-diethyl-3-methyl-1-oxo-2-butanamine)] | – | >A
COC(=O)N[C@@H](C(=O)N1[C@@H]2C[C@@H]2C[C@H]1c1nc(-c2ccc(-c3ccc(-c4c[nH]c([C@@H]5C[C@H]6C[C@H]6N5C(=O)[C@H](NC(=O)OC)C(C)C)n4)cc3)cc2)c[nH]1)C(C)C [Example M136, methyl ((1R)-1-(((1R,3S,5R)-3-(4-(4′-(2-((1R,3S,5R)-2-((2R)-2-((methoxycarbonyl)amino)-3-methylbutanoyl)-2-azabicyclo[3.1.0]hex-3-yl)-1H-imidazol-4-yl)-4-biphenylyl)-1H-imidazol-2-yl)-2-azabicyclo[3.1.0]hex-2-yl)carbonyl)-2-methylpropyl)carbamate] | 1 to 99 nM | –
COC(=O)N[C@H](C(=O)N1CCC[C@H]1c1ncc(-c2ccc(-c3ccc(-c4cnc([C@@H]5CCCN5C(=O)[C@@H](Nc5cccnc5)C(C)C)[nH]4)cc3)cc2)[nH]1)C(C)C [cj-20, methyl ((1S)-2-methyl-1-(((2S)-2-(5-(4′-(2-((2S)-1-(N-3-pyridinyl-L-valyl)-2-pyrrolidinyl)-1H-imidazol-5-yl)-4-biphenylyl)-1H-imidazol-2-yl)-1-pyrrolidinyl)carbonyl)propyl)carbamate] | 0.001 to 0.999 nM | –
COC(=O)N[C@@H](C(=O)N1CCC[C@H]1c1ncc(-c2ccc(-c3ccc(-c4cnc([C@@H]5CCCN5C(=O)Cc5ccccc5)[nH]4)cc3)cc2)[nH]1)c1ccccc1 [Example 28, methyl ((1R)-2-oxo-1-phenyl-2-((2S)-2-(5-(4′-(2-((2S)-1-(phenylacetyl)-2-pyrrolidinyl)-1H-imidazol-5-yl)-4-biphenylyl)-1H-imidazol-2-yl)-1-pyrrolidinyl)ethyl)carbamate] | 1 to 99 nM | –
CN1CCN(C(C(=O)N2CCC[C@H]2c2ncc(-c3ccc(-c4ccc(-c5cnc([C@@H]6CCCN6C(=O)[C@@H](c6ccccc6)N6CCCC6)[nH]5)cc4)cc3)[nH]2)c2ccccc2)CC1 (stereo partly drawn) [Example 98, 1-methyl-4-(2-oxo-1-phenyl-2-((2S)-2-(5-(4′-(2-((2S)-1-((2R)-2-phenyl-2-(1-pyrrolidinyl)acetyl)-2-pyrrolidinyl)-1H-imidazol-5-yl)-4-biphenylyl)-1H-imidazol-2-yl)-1-pyrrolidinyl)ethyl)piperazine] | 0.001 to 0.999 nM | –
CCN(CC)[C@@H](C(=O)N1CCC[C@H]1c1ncc(-c2ccc(-c3ccc(-c4cnc([C@@H]5CCCN5C(=O)[C@H](C)NC(=O)OC)[nH]4)cc3)cc2)[nH]1)c1ccccc1 [Example M49, methyl ((1S)-2-((2S)-2-(5-(4′-(2-((2S)-1-((2R)-2-(diethylamino)-2-phenylacetyl)-2-pyrrolidinyl)-1H-imidazol-5-yl)-4-biphenylyl)-1H-imidazol-2-yl)-1-pyrrolidinyl)-1-methyl-2-oxoethyl)carbamate] | 1 to 99 nM | –
COC(=O)N[C@@H](Cc1ccc(CNC(C)=O)cc1)C(=O)N1CCC[C@H]1c1ncc(-c2ccc(-c3ccc(-c4cnc([C@@H]5CCCN5C(=O)[C@@H](NC(=O)OC)C(C)C)[nH]4)cc3)cc2)[nH]1 [cj-114, methyl ((1S)-1-(4-(acetamidomethyl)benzyl)-2-((2S)-2-(5-(4′-(2-((2S)-1-((2S)-2-((methoxycarbonyl)amino)-3-methylbutanoyl)-2-pyrrolidinyl)-1H-imidazol-5-yl)-4-biphenylyl)-1H-imidazol-2-yl)-1-pyrrolidinyl)-2-oxoethyl)carbamate] | 0.001 to 0.999 nM | –
CCCOC(=O)N[C@@H](C)C(=O)N1CCC[C@H]1c1nc(-c2ccc(-c3ccc(-c4cnc([C@@H]5CCCN5C(=O)[C@H](C)NC(=O)OCCC)[nH]4)cc3)cc2)c[nH]1 [Example F20, propyl ((1S)-1-methyl-2-oxo-2-((2S)-2-(4-(4′-(2-((2S)-1-(N-(propoxycarbonyl)-L-alanyl)-2-pyrrolidinyl)-1H-imidazol-5-yl)-4-biphenylyl)-1H-imidazol-2-yl)-1-pyrrolidinyl)ethyl)carbamate] | 100 to 999 nM | –
O=C(C(c1ccccc1)N1CCNCC1)N1CCC[C@H]1c1ncc(-c2ccc(-c3ccc(-c4c[nH]c([C@@H]5CCCN5C(=O)[C@H]5CCCO5)n4)cc3)cc2)[nH]1 (stereo partly drawn) [Example 103-7, 1-(2-oxo-1-phenyl-2-((2S)-2-(5-(4′-(2-((2S)-1-((2R)-tetrahydro-2-furanylcarbonyl)-2-pyrrolidinyl)-1H-imidazol-4-yl)-4-biphenylyl)-1H-imidazol-2-yl)-1-pyrrolidinyl)ethyl)piperazine] | 0.001 to 0.999 nM | –
O=C(C(c1ccccc1)N1C2CCC1CC2)N1CCC[C@H]1c1ncc(-c2ccc(-c3ccc(-c4cnc([C@@H]5CCCN5C(=O)C(c5ccccc5)N5C6CCC5CC6)[nH]4)cc3)cc2)[nH]1 (stereo partly drawn) [Example M2, 7,7′-(4,4′-biphenyldiylbis(1H-imidazole-5,2-diyl(2S)-2,1-pyrrolidinediyl(2-oxo-1-phenyl-2,1-ethanediyl)))bis(7-azabicyclo[2.2.1]heptane)] | 1 to 99 nM | –
